Active and inactive are the calls of the source. No cut-off for these calls is given here.
Assays:
[1] = test system: Caco-2; assay: Cytotoxicity against human Caco2 cells assessed as cell survival at 50 uM after 48 hrs by Hoechst 33342 staining based assay relative to control; type: functional; conditions: Caco-2, 48 h, read-out: Survival
[2] = test system: HCT-116; assay: Cytotoxicity against human HCT116 cells assessed as cell survival at 50 uM after 48 hrs by Hoechst 33342 staining based assay relative to control; type: functional; conditions: HCT-116, 48 h, read-out: Survival
[3] = test system: PC-3; assay: Cytotoxicity against human PC3 cells assessed as cell survival at 50 uM after 48 hrs by Hoechst 33342 staining based assay relative to control; type: functional; conditions: PC-3, 48 h, read-out: Survival
[4] = test system: NCI-H727; assay: Cytotoxicity against human NCI-H727 cells assessed as cell survival at 50 uM after 48 hrs by Hoechst 33342 staining based assay relative to control; type: functional; conditions: NCI-H727, 48 h, read-out: Survival
[5] = test system: HaCaT; assay: Cytotoxicity against human HaCaT cells assessed as cell survival at 50 uM after 48 hrs by Hoechst 33342 staining based assay relative to control; type: functional; conditions: read-out: Survival
[6] = test system: MDA-MB-231; assay: Cytotoxicity against human MDA-MB-231 cells assessed as cell viability after 48 hrs by Hoechst 33342 staining based assay; type: functional; conditions: MDA-MB-231, 48 h
[7] = test system: HCT-116; assay: Cytotoxicity against human HCT116 cells assessed as cell viability after 48 hrs by Hoechst 33342 staining based assay; type: functional; conditions: HCT-116, 48 h
[8] = test system: MCF7; assay: Cytotoxicity against human MCF7 assessed as cell viability after 48 hrs by Hoechst 33342 staining based assay; type: functional; conditions: MCF7, 48 h
[9] = Selectivity index, ratio of IC50 for human fibroblasts to IC50 for human PC3 cells
[10] = Selectivity index, ratio of IC50 for human fibroblasts to IC50 for human MCF7 cells
[11] = test system: HCT-116; assay: Induction of apoptosis in human HCT116 cells harboring wild-type p53 assessed as increase in late apoptosis at 2 times IC50 after 48 hrs by YoPro/propidium iodide/Hoechst staining based assay; type: functional, cell-based
[12] = test system: PC-3; assay: Induction of apoptosis in human PC3 cells harboring p53 mutant assessed as increase in early apoptosis at 2 times IC50 after 48 hrs by YoPro/propidium iodide/Hoechst staining based assay; type: functional, cell-based
[13] = test system: PC-3; assay: Induction of apoptosis in human PC3 cells harboring p53 mutant assessed as increase in late apoptosis at 2 times IC50 after 48 hrs by YoPro/propidium iodide/Hoechst staining based assay; type: functional, cell-based
[14] = test system: MCF7; assay: Induction of apoptosis in human MCF7 cells harboring wild-type p53 assessed as increase in early apoptosis at 2 times IC50 after 24 hrs by YoPro/propidium iodide/Hoechst staining based assay; type: functional, cell-based
[15] = test system: Caco-2; assay: Cell cycle arrest in human Caco2 cells assessed as mitotic index at 10 uM measured after 48 hrs by Hoechst staining based fluorescence assay (reference value: 3.6); type: functional
[16] = test system: PC-3; assay: Cell cycle arrest in human PC3 cells harboring p53 mutant assessed as accumulation at S phase at 10 uM measured after 48 hrs by Hoechst/BrdU staining based fluorescence assay (reference value: 40.8%); type: functional
[17] = test system: NCI-H727; assay: Cell cycle arrest in human NCI-H727 cells harboring p53 mutant assessed as mitotic index at 10 uM measured after 48 hrs by Hoechst staining based fluorescence assay (reference value: 1.1); type: functional
[18] = test system: HaCaT; assay: Cell cycle arrest in human HaCaT cells harboring […] p53 assessed as accumulation at S phase at 10 uM measured after 48 hrs by Hoechst/BrdU staining based fluorescence assay (reference value: 52.3%); type: functional
[19] = test system: Huh-7; assay: Cell cycle arrest in human HuH7 cells assessed as accumulation at S phase at 25 uM measured after 48 hrs by Hoechst/BrdU staining based fluorescence assay (reference value: 44%); type: functional
[20] = test system: Caco-2; assay: Cell cycle arrest in human Caco2 cells assessed as mitotic index at 25 uM measured after 48 hrs by Hoechst staining based fluorescence assay (reference value: 3.6); type: functional
[21] = test system: Caco-2; assay: Cell cycle arrest in human Caco2 cells assessed as accumulation at S phase at 25 uM measured after 48 hrs by Hoechst/BrdU staining based fluorescence assay (reference value: […]); type: functional
[22] = test system: MDA-MB-231; assay: Cell cycle arrest in human MDA-MB-231 cells harboring p53 mutant assessed as mitotic index at 25 uM measured after 48 hrs by Hoechst staining based fluorescence assay (reference value: 2.1); type: functional
[23] = test system: MDA-MB-231; assay: Cell cycle arrest in human MDA-MB-231 cells harboring p53 mutant assessed as accumulation at S phase at 25 uM measured after 48 hrs by Hoechst/BrdU staining based fluorescence assay (reference value: 42.2%); type: functional
[24] = test system: PC-3; assay: Cell cycle arrest in human PC3 cells harboring p53 mutant assessed as mitotic index at 25 uM measured after 48 hrs by Hoechst staining based fluorescence assay (reference value: 2.5); type: functional
[25] = test system: PC-3; assay: Cell cycle arrest in human PC3 cells harboring p53 mutant assessed as accumulation at S phase at 25 uM measured after 48 hrs by Hoechst/BrdU staining based fluorescence assay (reference value: 40.8%); type: functional
[26] = test system: NCI-H727; assay: Cell cycle arrest in human NCI-H727 cells harboring p53 mutant assessed as mitotic index at 25 uM measured after 48 hrs by Hoechst staining based fluorescence assay (reference value: 1.1); type: functional
[27] = test system: HaCaT; assay: Cell cycle arrest in human HaCaT cells harboring […] p53 assessed as mitotic index at 25 uM measured after 48 hrs by Hoechst staining based fluorescence assay (reference value: 2.6); type: functional
[28] = test system: HaCaT; assay: Cell cycle arrest in human HaCaT cells harboring […] p53 assessed as accumulation at S phase at 25 uM measured after 48 hrs by Hoechst/BrdU staining based fluorescence assay (reference value: 52.3%); type: functional
[29] = test system: PC-3; assay: Cell cycle arrest in human PC3 cells assessed as accumulation at M phase by Hoechst staining based fluorescence assay; type: functional
[30] = test system: HCT-116; assay: Induction of apoptosis in human HCT116 cells harboring wild-type p53 assessed as upregulation of cyclinB1 measured after 48 hrs by Hoechst staining based assay; type: functional, cell-based
[31] = test system: MCF7; assay: Induction of apoptosis in human MCF7 cells harboring wild-type p53 assessed as upregulation of cyclinB1 measured after 18 hrs by Hoechst staining based assay; type: functional, cell-based
[32] = Selectivity index, ratio of IC50 for human fibroblasts to IC50 for human HuH7 cells
[33] = test system: NCI-H727; assay: Cell cycle arrest in human NCI-H727 cells assessed as accumulation at G1/S phase by Hoechst staining based fluorescence assay; type: functional
[34] = test system: HaCaT; assay: Cell cycle arrest in human HaCaT cells assessed as accumulation at M phase by Hoechst staining based fluorescence assay; type: functional
[35] = Selectivity index, ratio of IC50 for human fibroblasts to IC50 for human MDA-MB-231 cells
[36] = test system: MDA-MB-231; assay: Induction of apoptosis in human MDA-MB-231 cells harboring p53 mutant assessed as increase in late apoptosis at 2 times IC50 after 24 hrs by YoPro/propidium iodide/Hoechst staining based assay; type: functional, cell-based
[37] = test system: MDA-MB-231; assay: Cell cycle arrest in human MDA-MB-231 cells assessed as accumulation at M phase by Hoechst staining based fluorescence assay; type: functional
[38] = test system: MDA-MB-231; assay: Induction of apoptosis in human MDA-MB-231 cells harboring p53 mutant assessed as upregulation of cyclinB1 after 18 hrs by Hoechst staining based assay; type: functional, cell-based

## COc1cc(O)c(C(=O)/C=C/c2ccc(F)cc2)c(OC)c1
[1]
  viability at 50 µM: 45%
[2]
  viability at 50 µM: 25%
[3]
  viability at 50 µM: 56%
[4]
  viability at 50 µM: 54%
[5]
  viability at 50 µM: 36%
[6]
  IC50: > 20 µM
[7]
  IC50: 12.4 µM
[8]
  IC50: 8.8 µM
[9]
  Ratio IC50: >3.8
[10]
  Ratio IC50: >5.7
[11]
  Activity: Active
[12]
  Activity: Active
[13]
  Activity: Active
[14]
  Activity: Active
[15]
  Activity_index: 6.3
[16]
  Activity: 37%
[17]
  Activity: inactive
[18]
  Activity: inactive
[19]
  Activity: inactive
[20]
  Activity_index: 24.8
[21]
  Activity: 30%
[22]
  Activity: inactive
[23]
  Activity: inactive
[24]
  Activity_index: 5.3
[25]
  Activity: 34%
[26]
  Activity: inactive
[27]
  Activity: inactive
[28]
  Activity: inactive
[29]
  Activity: Active
[30]
  Activity: Active
[31]
  Activity: Active

## COc1cc(O)c(C(=O)/C=C/c2ccccc2SC)c(OC)c1
[1]
  viability at 50 µM: 23%
[2]
  viability at 50 µM: 1%
[3]
  viability at 50 µM: 35%
[4]
  viability at 50 µM: 8%
[5]
  viability at 50 µM: 22%
[6]
  IC50: > 20 µM
[7]
  IC50: 10 µM
[8]
  IC50: 15.9 µM
[32]
  Ratio IC50: 2.2
[9]
  Ratio IC50: 4.1
[10]
  Ratio IC50: 2.3
[11]
  Activity: Active
[12]
  Activity: Active
[13]
  Activity: Active
[14]
  Activity: Active
[15]
  Activity_index: 6
[16]
  Activity: 35%
[17]
  Activity_index: 0.9
[18]
  Activity: 51%
[19]
  Activity: 37%
[20]
  Activity_index: 21.9
[21]
  Activity: 37%
[22]
  Activity: inactive
[23]
  Activity: inactive
[24]
  Activity_index: 7.6
[25]
  Activity: 31%
[26]
  Activity_index: 0.4
[27]
  Activity_index: 7.8
[28]
  Activity: 30%
[29]
  Activity: Active
[33]
  Activity: Active
[34]
  Activity: Active
[30]
  Activity: Active
[31]
  Activity: Active

## COc1cc(O)c(C(=O)/C=C/c2ccccc2)c(OC)c1 [FLAVOKAWAIN B]
[1]
  viability at 50 µM: 1%
[2]
  viability at 50 µM: 0%
[3]
  viability at 50 µM: 27%
[4]
  viability at 50 µM: 2%
[5]
  viability at 50 µM: 7%
[6]
  IC50: 16.3 µM
[7]
  IC50: 7.5 µM
[8]
  IC50: 15.5 µM
[32]
  Ratio IC50: 1.7
[35]
  Ratio IC50: 1.6
[9]
  Ratio IC50: 2.9
[10]
  Ratio IC50: 1.7
[11]
  Activity: Active
[12]
  Activity: Active
[13]
  Activity: Active
[36]
  Activity: Active
[14]
  Activity: Active
[15]
  Activity_index: 9.7
[16]
  Activity: 35%
[17]
  Activity_index: 0.8
[18]
  Activity: 50%
[19]
  Activity: 30%
[20]
  Activity_index: 19.3
[21]
  Activity: 40%
[22]
  Activity_index: 6.8
[23]
  Activity: 40%
[24]
  Activity_index: 2
[25]
  Activity: 20%
[26]
  Activity_index: 0.2
[27]
  Activity_index: 0.9
[28]
  Activity: 21%
[37]
  Activity: Active
[33]
  Activity: Active
[30]
  Activity: Active
[31]
  Activity: Active
[38]
  Activity: Active

## COc1cccc(/C=C/C(=O)c2c(O)cc(OC)cc2OC)c1
[1]
  viability at 50 µM: 1%
[2]
  viability at 50 µM: 0%
[3]
  viability at 50 µM: 22%
[4]
  viability at 50 µM: 1%
[5]
  viability at 50 µM: 7%
[6]
  IC50: 13.2 µM
[7]
  IC50: 7.7 µM
[8]
  IC50: 10.3 µM
[32]
  Ratio IC50: 1.8
[35]
  Ratio IC50: 2
[9]
  Ratio IC50: 3.7
[10]
  Ratio IC50: 2.6
[11]
  Activity: Active
[12]
  Activity: Active
[13]
  Activity: Active
[36]
  Activity: Active
[14]
  Activity: Active
[15]
  Activity_index: 14.4
[16]
  Activity: 39%
[17]
  Activity_index: 1.2
[18]
  Activity: 49%
[19]
  Activity: 8.5%
[20]
  Activity_index: 6.1
[21]
  Activity: 34%
[22]
  Activity_index: 3.6
[23]
  Activity: 38%
[24]
  Activity_index: 0.4
[25]
  Activity: 9.4%
[26]
  Activity_index: 0.1
[27]
  Activity_index: 0.1
[28]
  Activity: 8%
[37]
  Activity: Active
[29]
  Activity: Active
[33]
  Activity: Active
[30]
  Activity: Active
[31]
  Activity: Active
[38]
  Activity: Active

## COc1cc(O)c(C(=O)/C=C/c2ccccc2OC)c(OC)c1
[1]
  viability at 50 µM: 43%
[2]
  viability at 50 µM: 8%
[3]
  viability at 50 µM: 32%
[4]
  viability at 50 µM: 11%
[5]
  viability at 50 µM: 30%
[6]
  IC50: > 20 µM
[7]
  IC50: 9.2 µM
[8]
  IC50: 10.5 µM
[9]
  Ratio IC50: 3.8
[10]
  Ratio IC50: 3.5
[11]
  Activity: Active
[12]
  Activity: Active
[13]
  Activity: Active
[14]
  Activity: Active
[15]
  Activity_index: 6.8
[16]
  Activity: 36%
[17]
  Activity_index: 1
[18]
  Activity: 49%
[19]
  Activity: inactive
[20]
  Activity_index: 21.5
[21]
  Activity: 37%
[22]
  Activity: inactive
[23]
  Activity: inactive
[24]
  Activity_index: 7.2
[25]
  Activity: 24%
[26]
  Activity_index: 0.5
[27]
  Activity_index: 8.4
[28]
  Activity: 29%
[29]
  Activity: Active
[33]
  Activity: Active
[34]
  Activity: Active
[30]
  Activity: Active
[31]
  Activity: Active
